Measurements as given in ChEMBL document CHEMBL1137401, “Structure-activity relationship studies on a novel series of (S)-2beta-substituted 3alpha-[bis(4-fluoro- or 4-chlorophenyl)methoxy]tropane analogues for in vivo investigation” (J Med Chem, 2006).
Active and inactive are the calls of the source. No cut-off for these calls is given here.

Legend:
[1] = biological target: Norepinephrine transporter (Rattus norvegicus, UniProt Q9WTR4); assay: Displacement of [3H]nisoxetine from NET in Sprague-Dawley rat brain; format: tissue-based
Rattus norvegicus [2] = species on record: Rattus norvegicus; assay: Selectivity for Sprague-Dawley rat DAT over rat M1 receptor
Rattus norvegicus [3] = species on record: Rattus norvegicus; assay: Drug discriminative activity in Sprague-Dawley rat measured as response on cocaine-appropriate lever; format: functional
[4] = biological target: Sodium-dependent serotonin transporter (Rattus norvegicus, UniProt P31652); assay: Displacement of [3H]citalopram from SERT in Sprague-Dawley rat brain; format: tissue-based
[5] = biological target: T1, Muscarinic acetylcholine receptor M1 (Rattus norvegicus, UniProt P08482); assay: Displacement of [3H]pirenzepine from M1 receptor in Sprague-Dawley rat brain
T1 sequence (P08482 whole entry): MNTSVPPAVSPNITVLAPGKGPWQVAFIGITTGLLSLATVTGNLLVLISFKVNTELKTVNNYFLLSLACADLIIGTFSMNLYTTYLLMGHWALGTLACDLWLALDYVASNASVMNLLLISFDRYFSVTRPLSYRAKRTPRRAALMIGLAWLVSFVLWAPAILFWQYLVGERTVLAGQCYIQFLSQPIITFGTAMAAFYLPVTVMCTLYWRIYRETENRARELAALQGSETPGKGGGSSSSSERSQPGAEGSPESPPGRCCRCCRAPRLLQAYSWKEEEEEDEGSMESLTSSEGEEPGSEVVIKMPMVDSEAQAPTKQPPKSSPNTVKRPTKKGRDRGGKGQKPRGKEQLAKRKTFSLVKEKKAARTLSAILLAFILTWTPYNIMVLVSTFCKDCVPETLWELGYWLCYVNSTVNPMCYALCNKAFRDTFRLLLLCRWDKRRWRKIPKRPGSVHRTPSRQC

[6] = biological target: T2, Sodium-dependent dopamine transporter (Rattus norvegicus, UniProt P23977); assay: biochemical; format: tissue-based, Sprague-Dawley, Brain
Description: Displacement of [3H]WIN-35428 from DAT in Sprague-Dawley rat brain

[7] = biological target: T2, Sodium-dependent dopamine transporter; assay: Inhibition of [3H]dopamine uptake at DAT in Sprague-Dawley rat brain

Chain of Norepinephrine transporter (Q9WTR4 whole entry): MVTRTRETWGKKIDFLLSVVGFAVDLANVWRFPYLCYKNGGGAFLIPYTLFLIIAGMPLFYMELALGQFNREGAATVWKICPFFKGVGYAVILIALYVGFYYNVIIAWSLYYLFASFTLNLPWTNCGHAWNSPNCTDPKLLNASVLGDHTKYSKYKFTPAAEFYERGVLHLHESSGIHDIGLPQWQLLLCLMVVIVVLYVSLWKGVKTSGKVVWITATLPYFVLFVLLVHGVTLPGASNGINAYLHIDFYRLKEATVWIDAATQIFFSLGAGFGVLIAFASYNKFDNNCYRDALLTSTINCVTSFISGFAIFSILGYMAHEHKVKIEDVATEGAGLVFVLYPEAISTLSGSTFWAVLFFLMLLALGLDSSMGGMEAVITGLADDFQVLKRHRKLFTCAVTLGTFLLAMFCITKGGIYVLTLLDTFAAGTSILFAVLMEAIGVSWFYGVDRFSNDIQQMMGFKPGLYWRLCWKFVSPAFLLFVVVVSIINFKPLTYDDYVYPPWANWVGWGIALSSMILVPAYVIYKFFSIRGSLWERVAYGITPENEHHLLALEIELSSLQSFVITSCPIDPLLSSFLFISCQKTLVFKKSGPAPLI
T2 sequence (P23977 whole entry): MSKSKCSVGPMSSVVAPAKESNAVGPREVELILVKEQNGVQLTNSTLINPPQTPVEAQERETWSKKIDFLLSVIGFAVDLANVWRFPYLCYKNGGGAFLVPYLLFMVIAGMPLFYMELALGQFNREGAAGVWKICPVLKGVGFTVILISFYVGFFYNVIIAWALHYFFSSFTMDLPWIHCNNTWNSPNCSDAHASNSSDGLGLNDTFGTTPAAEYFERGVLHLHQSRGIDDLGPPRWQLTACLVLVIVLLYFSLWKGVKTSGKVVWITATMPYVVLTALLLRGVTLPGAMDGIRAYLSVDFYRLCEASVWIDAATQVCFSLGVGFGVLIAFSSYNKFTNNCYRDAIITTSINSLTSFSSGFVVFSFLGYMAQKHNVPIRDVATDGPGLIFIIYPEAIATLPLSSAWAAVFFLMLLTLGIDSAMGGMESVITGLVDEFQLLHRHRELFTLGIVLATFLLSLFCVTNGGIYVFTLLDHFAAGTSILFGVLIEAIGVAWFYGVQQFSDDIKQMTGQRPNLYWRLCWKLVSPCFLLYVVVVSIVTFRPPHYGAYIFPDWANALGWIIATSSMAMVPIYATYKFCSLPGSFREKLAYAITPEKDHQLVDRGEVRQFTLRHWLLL
Chain of Sodium-dependent serotonin transporter (P31652 whole entry): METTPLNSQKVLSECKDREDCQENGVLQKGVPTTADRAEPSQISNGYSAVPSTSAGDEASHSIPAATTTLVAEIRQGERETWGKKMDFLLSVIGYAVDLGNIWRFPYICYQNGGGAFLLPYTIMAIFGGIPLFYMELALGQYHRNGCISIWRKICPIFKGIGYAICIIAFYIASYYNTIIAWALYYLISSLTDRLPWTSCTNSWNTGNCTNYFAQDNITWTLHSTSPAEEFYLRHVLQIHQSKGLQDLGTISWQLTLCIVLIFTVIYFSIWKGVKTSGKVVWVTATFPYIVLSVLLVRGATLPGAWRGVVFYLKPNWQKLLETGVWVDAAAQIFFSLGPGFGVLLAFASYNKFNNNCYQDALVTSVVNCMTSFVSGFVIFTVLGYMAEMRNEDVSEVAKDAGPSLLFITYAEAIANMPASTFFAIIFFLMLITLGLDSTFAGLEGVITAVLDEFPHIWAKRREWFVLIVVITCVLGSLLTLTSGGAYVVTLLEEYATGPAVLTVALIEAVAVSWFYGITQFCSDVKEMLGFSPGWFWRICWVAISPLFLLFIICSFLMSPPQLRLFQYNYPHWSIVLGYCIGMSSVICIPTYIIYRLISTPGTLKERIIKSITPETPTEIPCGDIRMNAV

Compound | Ki [1] [nM] | Ratio Ki (Rattus norvegicus [2]) | other results
CCCCN1C2CCC1[C@@H](C(=O)OCC)[C@@H](OC(c1ccc(F)cc1)c1ccc(F)cc1)C2 (stereo partly specified) | 580 | 391 | –
CCOC(=O)[C@@H]1C2CCC(C[C@@H]1OC(c1ccc(F)cc1)c1ccc(F)cc1)N2 (stereo partly specified) | 563 | 1930 | –
C=C[C@@H]1C2CCC(C[C@@H]1OC(c1ccc(F)cc1)c1ccc(F)cc1)N2C (stereo partly specified) | 473 | 90 | –
CN1C2CCC1[C@@H](COC(=O)CCCc1ccc(N)cc1)[C@@H](OC(c1ccc(F)cc1)c1ccc(F)cc1)C2 (stereo partly specified) | 440 | 12 | –
C=CCN1C2CCC1[C@@H](C(=O)OCC)[C@@H](OC(c1ccc(F)cc1)c1ccc(F)cc1)C2 (stereo partly specified) | 935 | 1040 | –
COC(=O)[C@@H]1C2CCC(C[C@@H]1OC(c1ccc(F)cc1)c1ccc(F)cc1)N2C (stereo partly specified) | – | 45 | –
COC(=O)/C=C/[C@@H]1C2CCC(C[C@@H]1OC(c1ccc(F)cc1)c1ccc(F)cc1)N2C (stereo partly specified) | 269 | 294 | –
COC(=O)C1C(OC(c2ccc(Cl)cc2)c2ccc(Cl)cc2)CC2CCC1N2C (racemic) | – | – | Activity (Rattus norvegicus [3]): inactive
CN1C2CCC1[C@@H](COC(=O)CCCc1ccc([N+](=O)[O-])cc1)[C@@H](OC(c1ccc(F)cc1)c1ccc(F)cc1)C2 (stereo partly specified) | 2130 | 18 | Ki [4]: 3780 nM; Ki [5]: 708 nM
CN1C2CCC1[C@@H](CO)[C@@H](OC(c1ccc(F)cc1)c1ccc(F)cc1)C2 (stereo partly specified) | 983 | 31 | Ki [6]: 3.4 nM
CN1C2CCC1CC(OC(c1ccc(F)cc1)c1ccc(F)cc1)C2 (stereo unspecified) [DIFLUOROBENZTROPINE] | – | – | Activity (Rattus norvegicus [3]): 65%
CCOC(=O)[C@@H]1C2CCC(C[C@@H]1OC(c1ccc(Cl)cc1)c1ccc(Cl)cc1)N2C (stereo partly specified) | 3350 | – | Ki [6]: 14.6 nM; IC50 [7]: 1.52 nM; Ki [4]: 1560 nM; Ki [5]: 3060 nM
COC(=O)CC[C@@H]1C2CCC(C[C@@H]1OC(c1ccc(F)cc1)c1ccc(F)cc1)N2C (stereo partly specified) | 454 | 832 | –
CCOC(=O)[C@@H]1C2CCC(C[C@@H]1OC(c1ccc(F)cc1)c1ccc(F)cc1)N2C (stereo partly specified) | – | 275 | –
COC(=O)[C@@H]1C2CCC(C[C@@H]1OC(c1ccc(Cl)cc1)c1ccc(Cl)cc1)N2C (stereo partly specified) | 2150 | 30 | Ki [6]: 12.6 nM; IC50 [7]: 2.46 nM; Ki [4]: 528 nM; Ki [5]: 382 nM
